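In this assay, cells in 96-well plates receive the compound at five concentrations for 48 hours. Endpoints are linearly interpolated between the surrounding concentrations. The concentration for full growth arrest is given as TGI.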
Columns and labels:
Experiment in all cases: DTP human tumour cell line panel, 48 h
DMS 273 small cell lung = tested on: DMS 273 small cell lung
LXFL 529 NSCLC = tested on: LXFL 529 NSCLC
SF-268 CNS = tested on: SF-268 CNS
KM20L2 colon = tested on: KM20L2 colon
DMS 114 small cell lung = tested on: DMS 114 small cell lung
OVCAR-3 ovarian = tested on: OVCAR-3 ovarian
M19-MEL melanoma = tested on: M19-MEL melanoma
SNB-78 CNS = tested on: SNB-78 CNS
A549 NSCLC = tested on: A549 NSCLC
XF 498 CNS = tested on: XF 498 CNS
HCC-2998 colon = tested on: HCC-2998 colon
DLD-1 colon = tested on: DLD-1 colon
SN12C renal = tested on: SN12C renal
HOP-18 NSCLC = tested on: HOP-18 NSCLC
RXF-631 renal = tested on: RXF-631 renal

SMILES: C=C1C(=O)OC2C[C@H](C)C3CC(=O)C(C)=C3CC12 (stereo partly drawn)
- TGI (DMS 273 small cell lung): 32.5 µM
- TGI (LXFL 529 NSCLC): 24.7 µM
- TGI (SF-268 CNS): 38.7 µM
- TGI (KM20L2 colon): 33.5 µM
- TGI (DMS 114 small cell lung): 32.2 µM
- TGI (OVCAR-3 ovarian): 26.2 µM
- TGI (M19-MEL melanoma): 27.8 µM
- TGI (SNB-78 CNS): 44.1 µM
- TGI (A549 NSCLC): 69.1 µM
- TGI (XF 498 CNS): 30.1 µM
- TGI (HCC-2998 colon): 29.2 µM
- TGI (DLD-1 colon): 21.5 µM
- TGI (SN12C renal): 26.1 µM

SMILES: O=C1NC2OCC(O)C(O1)C2O (stereo not drawn)
- TGI (DMS 273 small cell lung): > 100 µM
- TGI (LXFL 529 NSCLC): > 100 µM
- TGI (SF-268 CNS): > 100 µM
- TGI (KM20L2 colon): > 100 µM
- TGI (DMS 114 small cell lung): > 100 µM
- TGI (OVCAR-3 ovarian): > 100 µM
- TGI (M19-MEL melanoma): > 100 µM
- TGI (HOP-18 NSCLC): > 100 µM
- TGI (SNB-78 CNS): > 100 µM
- TGI (RXF-631 renal): > 100 µM
- TGI (XF 498 CNS): > 100 µM
- TGI (DLD-1 colon): > 100 µM
- TGI (SN12C renal): > 100 µM

SMILES: COc1nc(/C=N/NC(N)=S)nc(OC)n1
- TGI (DMS 273 small cell lung): > 100 µM
- TGI (LXFL 529 NSCLC): > 100 µM
- TGI (SF-268 CNS): > 100 µM
- TGI (KM20L2 colon): > 100 µM
- TGI (DMS 114 small cell lung): > 100 µM
- TGI (OVCAR-3 ovarian): > 100 µM
- TGI (M19-MEL melanoma): > 100 µM
- TGI (HOP-18 NSCLC): > 100 µM
- TGI (SNB-78 CNS): > 100 µM
- TGI (RXF-631 renal): > 100 µM
- TGI (A549 NSCLC): > 100 µM
- TGI (XF 498 CNS): > 100 µM
- TGI (HCC-2998 colon): > 100 µM
- TGI (DLD-1 colon): > 100 µM
- TGI (SN12C renal): > 100 µM

SMILES: CN(C)CCSC(=Nc1ccccc1)N1C=COC=C1
- TGI (DMS 273 small cell lung): 35.7 µM
- TGI (LXFL 529 NSCLC): 30.6 µM
- TGI (SF-268 CNS): 42.5 µM
- TGI (KM20L2 colon): > 100 µM
- TGI (DMS 114 small cell lung): 27.9 µM
- TGI (OVCAR-3 ovarian): > 81.8 µM
- TGI (M19-MEL melanoma): 32.5 µM
- TGI (HOP-18 NSCLC): > 100 µM
- TGI (SNB-78 CNS): 90.1 µM
- TGI (A549 NSCLC): > 100 µM
- TGI (XF 498 CNS): 85.3 µM
- TGI (HCC-2998 colon): 50.5 µM
- TGI (DLD-1 colon): 32.4 µM
- TGI (SN12C renal): 64.6 µM

SMILES: Cc1ccc(C2(C)NC(=S)N(NC(N)=S)C2=S)cc1 (stereo not drawn)
- TGI (DMS 273 small cell lung): > 100 µM
- TGI (LXFL 529 NSCLC): > 100 µM
- TGI (SF-268 CNS): > 100 µM
- TGI (KM20L2 colon): > 100 µM
- TGI (DMS 114 small cell lung): > 100 µM
- TGI (OVCAR-3 ovarian): > 100 µM
- TGI (M19-MEL melanoma): > 100 µM
- TGI (RXF-631 renal): > 100 µM
- TGI (A549 NSCLC): > 100 µM
- TGI (XF 498 CNS): > 100 µM
- TGI (HCC-2998 colon): > 100 µM
- TGI (DLD-1 colon): > 100 µM
- TGI (SN12C renal): > 100 µM

SMILES: Cc1ccc(S(=O)(=O)c2c(N)c3nccn3c3nc4ccccc4nc23)cc1
- TGI (DMS 273 small cell lung): > 100 µM
- TGI (LXFL 529 NSCLC): > 100 µM
- TGI (SF-268 CNS): > 100 µM
- TGI (KM20L2 colon): > 100 µM
- TGI (DMS 114 small cell lung): > 100 µM
- TGI (OVCAR-3 ovarian): > 100 µM
- TGI (M19-MEL melanoma): > 100 µM
- TGI (SNB-78 CNS): > 100 µM
- TGI (A549 NSCLC): > 100 µM
- TGI (XF 498 CNS): > 100 µM
- TGI (HCC-2998 colon): > 100 µM
- TGI (DLD-1 colon): > 100 µM
- TGI (SN12C renal): > 100 µM

SMILES: CC(C)=CCC/C(C)=C/CC/C(C)=C/CC/C=C(\C)CC/C=C(\C)CCC1SC1(C)C (stereo not drawn)
- TGI (DMS 273 small cell lung): > 100 µM
- TGI (LXFL 529 NSCLC): > 100 µM
- TGI (SF-268 CNS): > 100 µM
- TGI (KM20L2 colon): > 100 µM
- TGI (DMS 114 small cell lung): > 100 µM
- TGI (M19-MEL melanoma): > 100 µM
- TGI (HOP-18 NSCLC): > 100 µM
- TGI (SNB-78 CNS): > 100 µM
- TGI (A549 NSCLC): > 100 µM
- TGI (HCC-2998 colon): > 100 µM
- TGI (DLD-1 colon): > 100 µM
- TGI (SN12C renal): > 100 µM

SMILES: CC(C)(C)[Si](C)(C)OCC1OC(n2cc(F)c(=O)[nH]c2=O)CC1O[Si](C)(C)C(C)(C)C (stereo not drawn)
- TGI (SF-268 CNS): 29.8 µM
- TGI (OVCAR-3 ovarian): 32.5 µM
- TGI (A549 NSCLC): 25.6 µM
- TGI (HCC-2998 colon): 3.48 µM
- TGI (SN12C renal): 9.43 µM

SMILES: C/C(O)=C(/C=N\C(=S)Nc1ccc(Cl)c(Cl)c1)C(=O)Nc1ccccc1C
- TGI (SF-268 CNS): > 100 µM
- TGI (OVCAR-3 ovarian): > 100 µM
- TGI (A549 NSCLC): > 100 µM
- TGI (HCC-2998 colon): > 100 µM
- TGI (SN12C renal): > 100 µM

SMILES: Cc1[nH]c2ncn3ncnc3c2c1Cc1ccccc1
- TGI (SF-268 CNS): > 100 µM
- TGI (OVCAR-3 ovarian): > 100 µM
- TGI (A549 NSCLC): > 100 µM
- TGI (HCC-2998 colon): > 100 µM
- TGI (SN12C renal): > 100 µM

SMILES: O/N=C(\C=N\O)c1ccc2c(c1)Sc1ccccc1O2
- TGI (SF-268 CNS): 38.4 µM
- TGI (OVCAR-3 ovarian): 48.8 µM
- TGI (A549 NSCLC): > 100 µM
- TGI (HCC-2998 colon): 41.9 µM
- TGI (SN12C renal): 37.1 µM

SMILES: CCOC(=O)C1(Cc2ccccc2)Cc2cc3c(cc2C1=O)CCC3 (stereo not drawn)
- TGI (SF-268 CNS): > 100 µM
- TGI (OVCAR-3 ovarian): > 100 µM
- TGI (A549 NSCLC): > 100 µM
- TGI (HCC-2998 colon): > 100 µM
- TGI (SN12C renal): > 100 µM
